# Laboratory results: patent US20240156825A1, “USE OF SELECTIVE VEGFR2 AND FGFR1 INHIBITORS” (Fountain Therapeutics Inc., priority 2022, published 2024)
# Read-outs that look alike come from different tables or passages of the source.
# Experiments:
# [1] = system: VEGFR2 and FGFR1; assay: Selection of compounds that selectively inhibit both VEGFR2 and FGFR1 (average relative IC50); format: biochemical
# [2] = target: T1, VEGFR2 (Homo sapiens, UniProt P35968); conditions: relative IC50: reported IC50 toward VEGFR2 divided by next lowest reported IC50 to any gene target
# T1 sequence (P35968 20-1356, species assumed): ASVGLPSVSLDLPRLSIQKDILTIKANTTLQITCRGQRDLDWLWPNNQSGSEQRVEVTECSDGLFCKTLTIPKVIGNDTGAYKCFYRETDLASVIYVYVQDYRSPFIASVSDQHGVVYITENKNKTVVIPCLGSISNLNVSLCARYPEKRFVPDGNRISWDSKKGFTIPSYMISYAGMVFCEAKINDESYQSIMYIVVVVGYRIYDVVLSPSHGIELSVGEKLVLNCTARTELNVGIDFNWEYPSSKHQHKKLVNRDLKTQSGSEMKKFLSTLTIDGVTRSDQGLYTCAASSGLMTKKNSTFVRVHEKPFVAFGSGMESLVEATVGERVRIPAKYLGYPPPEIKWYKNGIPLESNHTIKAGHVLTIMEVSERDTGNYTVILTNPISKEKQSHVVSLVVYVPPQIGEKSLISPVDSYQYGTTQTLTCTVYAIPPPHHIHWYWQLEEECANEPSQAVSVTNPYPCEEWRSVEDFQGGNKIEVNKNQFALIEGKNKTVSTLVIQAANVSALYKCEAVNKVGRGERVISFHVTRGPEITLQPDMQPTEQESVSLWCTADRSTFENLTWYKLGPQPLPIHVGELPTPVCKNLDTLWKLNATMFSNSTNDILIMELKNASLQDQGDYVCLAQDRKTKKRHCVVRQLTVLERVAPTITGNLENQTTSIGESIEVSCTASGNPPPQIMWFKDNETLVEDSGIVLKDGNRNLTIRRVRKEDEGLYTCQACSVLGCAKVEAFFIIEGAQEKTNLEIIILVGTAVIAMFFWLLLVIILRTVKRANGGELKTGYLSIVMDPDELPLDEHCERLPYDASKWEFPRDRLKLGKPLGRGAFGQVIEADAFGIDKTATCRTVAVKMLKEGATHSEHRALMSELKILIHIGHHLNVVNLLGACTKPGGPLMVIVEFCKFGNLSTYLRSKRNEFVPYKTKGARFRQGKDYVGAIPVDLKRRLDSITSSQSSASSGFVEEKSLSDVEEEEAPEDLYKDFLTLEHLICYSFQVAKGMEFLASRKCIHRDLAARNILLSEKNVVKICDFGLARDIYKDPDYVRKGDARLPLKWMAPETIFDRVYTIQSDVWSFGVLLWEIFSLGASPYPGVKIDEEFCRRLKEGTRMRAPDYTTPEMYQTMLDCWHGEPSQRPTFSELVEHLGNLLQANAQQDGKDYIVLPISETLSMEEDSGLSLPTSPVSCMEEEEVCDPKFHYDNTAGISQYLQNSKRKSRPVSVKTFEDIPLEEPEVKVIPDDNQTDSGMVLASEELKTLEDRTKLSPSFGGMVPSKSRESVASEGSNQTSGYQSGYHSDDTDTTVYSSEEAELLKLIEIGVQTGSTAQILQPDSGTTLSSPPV
# [3] = system: any gene target; conditions: cited from earlier work
# [4] = target: T1, VEGFR2; conditions: reported IC50 to VEGFR2; Table 3, selective inhibitors of VEGFR2; read-out: VEGFR2 IC50_μM; cited from earlier work
# [5] = average of VEGFR2 and FGFR1 relative IC50
# [6] = lowest reported IC50 to any gene target, read-out: Min IC50_μM
# [7] = lowest reported IC50 to any gene target, read-out: min IC50
# [8] = next lowest IC50 value to any gene target, Table 3, read-out: Min IC50_μM
smiles,measurement,setting,value
"Oc1cc2c(cc1O)C1c3ccc(O)c(O)c3OCC1(O)C2 (stereo not shown) [compound 442514, Haematoxylin]",avg rIC50,[1],5.5
same,"VEGFR2, rIC50",[2],9.5
"COc1cc(OC)cc(-c2cc3cnc(NCCCN4CCOCC4)cc3nc2NC(=O)NC(C)(C)C)c1 [compound 5329004, 1,6-Naphthyridine deriv. 20, reference compound]",avg rIC50,[1]; [5],5.0
"COc1cc(OC)cc(-c2cc3cnc(NCCCN4CCN(C)CC4)cc3nc2NC(=O)NC(C)(C)C)c1 [compound 5330127, 1,6-Naphthyridine 17, reference compound]",avg rIC50,[1]; [5],3.0
"CCN(CC)CCCNc1cc2nc(NC(=O)NC(C)(C)C)c(-c3cc(OC)cc(OC)c3)cc2cn1 [compound 5330128, 1,6-Naphthyridine 18, reference compound]",avg rIC50,[1]; [5],4.3
"COc1cc(OC)cc(-c2cc3cnc(NCCCCN4CCOCC4)cc3nc2NC(=O)NC(C)(C)C)c1 [compound 5330129, 1,6-Naphthyridine 19, reference compound]",avg rIC50,[1]; [5],1.5
"COc1cc(OC)cc(-c2cc3cnc(NCCCCN4CCN(C)CC4)cc3nc2NC(=O)NC(C)(C)C)c1 [compound 5330130, reference compound]",avg rIC50,[1]; [5],4.3
same,IC50,[3]; [6],0.4 nM
"COc1cc(OC)cc(-c2cc3cnc(NCCCCCN4CCN(C)CC4)cc3nc2NC(=O)NC(C)(C)C)c1 [compound 5330135, 1,6-Naphthyridine 25, reference compound]",avg rIC50,[1]; [5],1.8
same,IC50,[3]; [6],3 nM
same,IC50,[3]; [7],3 nM
"COc1cc(OC)cc(-c2cc3cnc(NCCCO)cc3nc2NC(=O)NC(C)(C)C)c1 [compound 5330157, 1,6-Naphthyridine 75, reference compound]",avg rIC50,[1]; [5],1.4
"COc1cc(OC)cc(-c2cc3cnc(NCCCCCO)cc3nc2NC(=O)NC(C)(C)C)c1 [compound 5330159, 1,6-Naphthyridine 77, reference compound]",avg rIC50,[1]; [5],1.5
"CCNC(=O)Nc1nc2nc(NCCCN3CCN(C)CC3)ncc2cc1-c1cc(OC)cc(OC)c1 [compound 5330166, Pyrido[2,3-d]pyrimidine 102, reference compound]",avg rIC50,[1]; [5],2.6
"COc1cc(OC)cc(-c2cc3cnc(NCCCN4CCN(C)CC4)nc3nc2NC(=O)NC(C)(C)C)c1 [compound 5330167, Pyrido[2,3-d]pyrimidine 103, reference compound]",avg rIC50,[1]; [5],2.3
"CCNC(=O)Nc1nc2nc(NCCCCN(CC)CC)ncc2cc1-c1cc(OC)cc(OC)c1 [compound 5330168, Pyrido[2,3-d]pyrimidine 104, reference compound]",avg rIC50,[1]; [5],3.4
"COc1cc(OC)cc(-c2cc3cnc(NCCCO)nc3nc2NC(=O)NC(C)(C)C)c1 [compound 5330169, Pyrido[2,3-d]pyrimidine 105, reference compound]",avg rIC50,[1]; [5],2.3
"CONC(=O)c1cc(Nc2ncnn3cc(-c4ncc(C)o4)c(C(C)C)c23)c(F)cc1F [compound 10388612, 2,4-Difluoro-5-[5-isopropyl-6-(5-methyl-oxazol-2-yl)-pyrrolo[2,1-f][1,2,4]triazin-4-ylamino]-N-methoxy-benzamide, reference compound]",IC50,[4],1.1 nM
same,IC50,[3]; [7],1 nM
same,IC50,[3]; [8],1.1 nM
same,"VEGFR2, rIC50",[2],1.0
"CONC(=O)c1cc(Nc2ncnn3cc(-c4nnc(CC5CC5)o4)c(C(C)C)c23)c(F)cc1F [compound 11155938, 5-[6-(5-Cyclopropylmethyl-[1,3,4]oxadiazol-2-yl)-5-isopropyl-pyrrolo[2,1-f][1,2,4]triazin-4-ylamino]-2,4-difluoro-N-methoxy-benzamide, reference compound]",IC50,[4],4 nM
same,IC50,[3]; [7],4 nM
same,IC50,[3]; [8],4 nM
same,"VEGFR2, rIC50",[2],1.0
"COc1ccc(N2Cc3cnc(Nc4ccc(F)cc4)nc3N([C@@H]3CC[C@@H](O)C3)C2=O)cc1 [compound 11396738, 7-(4-Fluoroanilino)-1-[(1R,3R)-3-hydroxycyclopentyl]-3-(4-methoxyphenyl)-4H-pyrimido[4,5-d]pyrimidin-2-one, reference compound]",avg rIC50,[1],1.2
same,IC50,[3]; read-out: Min IC50_μM,83 nM
same,IC50,[3]; read-out: min IC50,83 nM
same,"VEGFR2, rIC50",[2],0.6
"CONC(=O)c1cc(Nc2ncnn3cc(-c4nc(C)no4)c(C(C)C)c23)c(F)cc1F [compound 11419379, 2,4-Difluoro-5-[5-isopropyl-6-(3-methyl-[1,2,4]oxadiazol-5-yl)-pyrrolo[2,1-f][1,2,4]triazin-4-ylamino]-N-methoxy-benzamide, reference compound]",IC50,[4],6.8 nM
same,IC50,[3]; [7],7 nM
same,IC50,[3]; [8],6.8 nM
same,"VEGFR2, rIC50",[2],1.0
"CONC(=O)c1cc(Nc2ncnn3cc(-c4nnc(C5CC5)o4)c(C(C)C)c23)c(F)cc1F [compound 11465545, 5-[6-(5-Cyclopropyl-[1,3,4]oxadiazol-2-yl)-5-isopropyl-pyrrolo[2,1-f][1,2,4]triazin-4-ylamino]-2,4-difluoro-N-methoxy-benzamide, reference compound]",IC50,[4],3.6 nM
same,IC50,[3]; [7],4 nM
same,IC50,[3]; [8],3.6 nM
same,"VEGFR2, rIC50",[2],1.0
"Oc1ccc(C[C@@]2(O)COc3c(ccc(O)c3O)[C@H]2O)cc1O [compound 24949852, Epihematoxylol]",avg rIC50,[1],3.7
same,"VEGFR2, rIC50",[2],5.8
"CCN1CCC(Nc2ccc3c(c2)/C(=C(\c2cccc(F)c2)c2nc(C)c[nH]2)C(=O)N3)CC1 [compound 67163677, XL999; XL-999; XL 999, reference compound]",avg rIC50,[1]; [5],2.0
same,IC50,[3]; [7],2 nM
"CNC(=O)c1cc(F)cc(N(CCNC(C)C)c2ccc3ncc(-c4cnn(C)c4)nc3c2)c1 [compound 68209105, reference compound]",avg rIC50,[1]; [5],2.8
same,IC50,"[3]; Table 2, lowest reported IC50 to any gene target, read-out: Min IC50_μM",3.16 nM
same,IC50,[3]; [7],2 nM
"Nc1c(C(=O)c2cc3cc(CN4CCOCC4)ccc3[nH]2)cnn1-c1cc(O)ccc1Cl [compound 134156584, [5-Amino-1-(2-chloro-5-hydroxyphenyl)pyrazol-4-yl]-[5-(morpholin-4-ylmethyl)-1H-indol-2-yl]methanone]","VEGFR2, rIC50",[2],5.6
"CCN1CCC(Nc2ccc3[nH]c(O)c(C(=C4N=c5ccccc5=N4)c4ccccc4)c3c2)CC1 [compound 135405015, 3-[Benzimidazol-2-ylidene(phenyl)methyl]-5-[(1-ethylpiperidin-4-yl)amino]-1H-indol-2-ol]","VEGFR2, rIC50",[2],2.0
COC(=O)c1ccc2c(c1)NC(=O)/C2=C(\Nc1ccc(N(CCCN(C)C)C(C)=O)cc1)c1ccccc1 [compound 135405065],"VEGFR2, rIC50",[2],3.0
"COC(=O)c1ccc2c(C(=Nc3ccc(C(=O)N(C)CCN(C)C)cc3)c3ccccc3)c(O)[nH]c2c1 [compound 135452890, Methyl 3-[N-[4-[2-(dimethylamino)ethyl-methylcarbamoyl]phenyl]-C-phenylcarbonimidoyl]-2-hydroxy-1H-indole-6-carboxylate]","VEGFR2, rIC50",[2],2.2
"COC(=O)c1ccc2c(c1)NC(=O)/C2=C(\Nc1ccc(N(CC(=O)N(C)C)C(C)=O)cc1)c1ccccc1 [compound 135456052, Methyl (3Z)-3-[[4-[acetyl-[2-(dimethylamino)-2-oxoethyl]amino]anilino]-phenylmethylidene]-2-oxo-1H-indole-6-carboxylate]","VEGFR2, rIC50",[2],1.3
"COC(=O)c1ccc2c(c1)NC(=O)/C2=C(\Nc1ccc(N(CCN(C)C)S(C)(=O)=O)cc1)c1ccccc1 [compound 135456078, Methyl (3Z)-3-[[4-[2-(dimethylamino)ethyl-methylsulfonylamino]anilino]-phenylmethylidene]-2-oxo-1H-indole-6-carboxylate]","VEGFR2, rIC50",[2],2.3
"COC(=O)c1ccc2c(c1)NC(=O)/C2=C(\Nc1ccc(CN2CCCCC2)cc1)c1ccccc1 [compound 135476706, Methyl (3Z)-2-oxo-3-[phenyl-[4-(piperidin-1-ylmethyl)anilino]methylidene]-1H-indole-6-carboxylate]",avg rIC50,[1],1.7
same,IC50,[3]; read-out: min IC50,32 nM
same,"VEGFR2, rIC50",[2],1.1
"CCN1CCC(Nc2ccc3[nH]c(O)c(C(=C4N=c5ccccc5=N4)c4cccc(F)c4)c3c2)CC1 [compound 135488014, 3-[Benzimidazol-2-ylidene-(3-fluorophenyl)methyl]-5-[(1-ethylpiperidin-4-yl)amino]-1H-indol-2-ol]","VEGFR2, rIC50",[2],0.6
"CCN1CCC(Nc2ccc3[nH]c(O)c(C(=C4N=c5ccccc5=N4)c4ccc(C)cc4)c3c2)CC1 [compound 135507297, 3-[Benzimidazol-2-ylidene-(4-methylphenyl)methyl]-5-[(1-ethylpiperidin-4-yl)amino]-1H-indol-2-ol]","VEGFR2, rIC50",[2],1.6
"COC(=O)c1ccc2c(c1)NC(=O)C2=C(Nc1ccc(CN(C)C)cc1)c1ccccc1 [compound 135522918, Methyl 3-[[4-[(dimethylamino)methyl]anilino]-phenylmethylidene]-2-oxo-1H-indole-6-carboxylate]","VEGFR2, rIC50",[2],2.3
"COC(=O)c1ccc2c(c1)NC(=O)/C2=C(\Nc1ccc(N(CCN(C)C)C(C)=O)cc1)c1ccccc1 [compound 135528963, Methyl (3Z)-3-[[4-[acetyl-[2-(dimethylamino)ethyl]amino]anilino]-phenylmethylidene]-2-oxo-1H-indole-6-carboxylate]","VEGFR2, rIC50",[2],2.4
"CCN1CCC(Nc2ccc3[nH]c(O)c(C(=C4N=c5ccccc5=N4)c4cc(F)cc(F)c4)c3c2)CC1 [compound 135546228, 3-[Benzimidazol-2-ylidene-(3,5-difluorophenyl)methyl]-5-[(1-ethylpiperidin-4-yl)amino]-1H-indol-2-ol]","VEGFR2, rIC50",[2],0.7
